Measured values as given in patent publication US10208059B2, “Heterocyclic modulators of HIF activity for treatment of disease” (Board of Regents, University of Texas System, priority 2012, dated 2019).
Entries after “also recorded” stand apart in the source; their conditions may differ.

Key:
293T-HRE-GFP-luc cells = test: Cell-based reporter assay for IC50 determinations; settings: hypoxia 6 hrs (1% O2), luminescence, read-out: IC50 Classification
Method in brief: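 IC50 comes from a four-parameter logistic fit of luminescence from HRE-GFP-luc 293T cells. Compounds (1:3 series, 1:50 medium dilution) were preincubated 30 min under normoxia, followed by 6 h at 1% O2, 5% CO2, 37 °C, before Steadylite luciferase detection.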

NB-1 cells = test: Neuroblastoma cellular assay, cell numbers; format: cell-based; settings: various concentrations
Source text: (§1) NB-1, Gli56, and D423 cell lines are deleted for ENO-1 (GLI56 and D423) or PGD, which renders them with reduced glycolytic capacity (Muller, F. et al., Nature, 2012, 488, 337-42).

D423 cells = test: Glioblastoma cellular assay, cell numbers; format: cell-based; settings: various concentrations
Source text: as §1

Gli56 cells = test: Glioblastoma cellular assay, cell numbers; format: cell-based; settings: various concentrations
Source text: as §1

H460 xenografts = test: H460 non-small cell lung cancer xenograft model; format: in vivo, mice
Experimental: H460 cells were implanted subcutaneously in CD-1 nude mice and treated with 150 mpk qdx14 PO of the compound of Example 2 delivered by oral gavage for 14 days. Animals were randomized into study groups and the study initiated when the average tumor volume was 400 mm^3. During treatment, tumor volume was measured three times per week to determine tumor growth over the course of the study (FIG. 6). Nine tumor bearing mice were included in each group. On day 15, 3 hours prior to take down, hypoxyprobe (Hypoxyprobe, Inc. cat # HP3) was injected into mice. Tumor sections were stained (dark areas) for the level of hypoxia utilizing an anti-hypoxyprobe antibody and standard IHC methods (FIG. 7). The same tumors were stained for the expression of HIF regulated gene carbonic anhydrase IX (CA9) using standard IHC methods (FIG. 8).

TMD8 cells = test: Diffuse large B-cell lymphoma (DLBCL) assay, viable cells; format: cell-based; settings: varying concentrations, 7 days, Guava ViaCount
Experimental: Diffuse Large B-Cell Lymphoma (DLBCL) Assay
Equal number of TMD8 cells were plated and treated with varying concentrations of the compound of Example 80 for 7 days. Percent of viable cells was determined using Guava ViaCount reagents (EMD Millipore cat #4000-0040) that contains proprietary dyes that enable the determination of the number of live and dead cells in a sample (FIG. 1).

OCI-AML3 cells = test: Acute myeloid leukemia cell viability; format: cell-based; settings: various concentrations, 2 days, normalized to DMSO control
Experimental: (§2) The OCI-AML3 cell line was treated with various concentrations of compound for 2 days and the percent of viable cells normalized to control cells treated with DMSO (FIG. 9). OCI-AML3 cells constitutively expressing luciferase were tail vein injected in NSG nude mice. 17 days after cell injection, luciferin was injected into animals and luciferase signal was measured using an IVIS imaging system to determine tumor burden and for randomization of subjects into study groups. On day 18, animals began receiving daily oral doses of vehicle or 10 mpk of the compound of Example 80 which continued throughout the study. On day 28, imaging was performed again to determine tumor burden (FIG. 10).

[1] = tested on: OCI-AML3 models in NSG mice; test: Human leukemia model, OCI-AML3 in NSG mice; format: in vivo; settings: 10 mg/kg daily oral
Experimental: as §2

NB-1 xenografts = test: NB-1 xenograft model; format: in vivo; settings: daily oral 10 mg/kg (b1183 says 40 mpk), CD-1 nude mice
Experimental: To establish activity and provide in vivo proof of concept, NB-1 cells were implanted into CD-1 nude mice and treated with 40 mpk of the compound of Example 80 po or vehicle daily when tumors reached 400-500 mm^3. Tumor size was measured 3×/week using caliper measurements (FIG. 5).

Compound | IC50 (293T-HRE-GFP-luc cells) [nM] | cell death in NB-1 cells (NB-1 cells) | number of viable NB-1 cells (NB-1 cells) | number of viable D423 cells (D423 cells) | cell death in Gli56 cells (Gli56 cells) | number of viable Gli56 cells (Gli56 cells) | tumor growth of H460 xenografts (H460 xenografts; 150 mg/kg daily oral for 14 days, CD-1 nude mice) | level of HIF regulated gene carbonic anhydrase IX (CAIX/CA9) in H460 xenografts (IHC) (H460 xenografts; 150 mg/kg daily oral, day 15) | level of hypoxia in H460 xenografts (hypoxyprobe IHC) (H460 xenografts; 150 mg/kg daily oral, day 15) | number/percent of viable TMD8 cells (TMD8 cells) | number of viable OCI-AML3 cells (OCI-AML3 cells) | disease burden (tumor burden) by IVIS imaging [1] | survival ([1]; relative to vehicle) | tumor growth of NB-1 xenografts (NB-1 xenografts)
Cc1nc(-c2nc(-c3ccc(OC(F)(F)F)cc3)no2)nn1Cc1ccnc(N2CCN(C)CC2)c1 [Example 2, 5-(5-Methyl-1-((2-(4-methylpiperazin-1-yl)pyridin-4-yl)methyl)-1H-1,2,4-triazol-3-yl)-3-(4-(trifluoromethoxy)phenyl)-1,2,4-oxadiazole] | < 100 | readily apparent | significantly reduced; also recorded: reduced number of viable cells | significantly reduced; also recorded: reduced number of viable cells | readily apparent | significantly reduced | inhibited the growth; also recorded: reduces the tumor growth | elimination of hypoxia and CA9 protein expression; also recorded: reduce the level of CAIX | elimination of hypoxia; also recorded: reduce the level of hypoxia |  |  |  |  | 
Cc1nc(-c2nc(-c3ccc(OC(F)(F)F)cc3)no2)nn1Cc1cccc(N2CCC(S(C)(=O)=O)CC2)c1 [Example 80, 4-Methanesulfonyl-1-{3-[(5-methyl-3-{3-[4-(trifluoromethoxy)phenyl]-1,2,4-oxadiazol-5-yl}-1H-1,2,4-triazol-1-yl)methyl]phenyl}piperidine] | < 100 | readily apparent | significantly reduced; also recorded: reduced number of viable cells | significantly reduced; also recorded: reduced number of viable cells | readily apparent | significantly reduced; also recorded: reduced number of viable cells |  |  |  | respond robustly; also recorded: reduced number of viable cells | reduced number of viable cells | reduces disease burden | significantly increased their survival; also recorded: extends survival | reduces the tumor growth
